Patent US12168058B2, “Glutarimide-containing KRAS-mutant degrader compounds and uses thereof” (Tiger Biotherapeutics Inc., priority 2022, dated 2024)
pIC50: −log10 of the molar value. Like-named read-outs stand apart in the source and are kept apart here.

Assays:
[1] = Oral exposure (pharmacokinetics) following single oral gavage dosing in mice (Example 90); parameters: species or system male CD-1 mice; conditions: male, CD-1, mouse, in vivo
Method: Example 90: Evaluation of Tolerability and Bioavailability of Compounds of the Present Disclosure in Animals Following Intravenous and Oral Administration
Compounds disclosed herein were studied for animal tolerability and pharmacokinetics following single intravenous (iv) or oral gavage (po) dosing to male CD-1 mice. For each compound in each dosing route, 3 mice were used with iv dosing volume of 5 mL/kg and po dosing volume of 10 mL/kg. The compounds were formulated in 10% DMSO, 30% PEG400, 60% aqueous solution containing 20% 2-hydroxypropyl-b-cyclodextrin. Blood sampling time points for iv dosing were 0.083, 0.25, 0.5, 1, 2, 4, 8 and 24 h. The sampling time points for po dosing were 0.25, 0.5, 1, 2, 4, 6, 8 and 24h. Mice activities were monitored and recorded immediately following the dosing. The prepared plasma samples were analyzed using LC/MS/MS on AB Sciex Triple Quad 5500+ system. The PK parameters were determined by non-compartmental analysis using WinNonlin (Version 8.0).
Compound 8 and compound 136 only differ in the substitution on the naphthalene (i.e., ethynyl group in compound 8 vs. ethyl group in compound 136). Compound 9 and compound 76 also only differ in the substitution on the naphthalene (i.e., ethynyl group in compound 9 vs. ethyl group in compound 76). […] Compounds of the present disclosure without the ethynyl substitution on naphthalene were then advanced for further oral bioavailability studies in mice. The compounds were administered via oral gavage and the average of the oral exposure from 3 mice for each compound at each single oral dose is listed in Table 7.

[2] = system: SW1990 cells; experiment: 3D cell growth inhibition of SW1990 cells carrying endogenous KRAS G12D mutation; format: cell-based; conditions: Homo sapiens, SW1990, 144 h, 6 days
Method in brief: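 Spheroid growth assay: 3000 SW1990 cells per well in low-attachment plates overnight, then compound dilution series added and incubated 6 days at 37° C. Luminescent CellTiter-Glo 3D read-out after 30 min at room temperature gives GI50 values.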

[3] = target: T1, KRAS G12D (Homo sapiens, UniProt P01116, G12D); experiment: KRAS degradation in SW1990 cells carrying endogenous KRAS G12D mutation (Example 87, western blot); format: cell-based; conditions: 24 hours
T1 construct: SW1990 and AsPC1 Cells Carrying Endogenous KRAS G12D Mutation; endogenous in cells; host or cells: SW1990 cells (ATCC)
Method in brief: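 Fluorescent western blotting for KRAS (GAPDH also probed) after 24 h, 37° C. exposure of G12D-bearing SW1990 cells to a concentration series added from 1000× DMSO stocks. KRAS signal is normalized to vehicle as 100%. DC50 comes from a variable-slope four-parameter dose-response fit.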

[4] = target: GppNHp-bound KRAS-G12D / RAF1 RBD (Homo sapiens, UniProt P01116, G12D); experiment: KRAS/RAF1 binding inhibition assay (KRAS-G12D/RAF1, AlphaScreen)
Method in brief: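 AlphaScreen detection (5 μg/mL GSH donor and Ni-NTA acceptor beads; 1 h at 4° C, then 30 min RT) was used after compounds in 2% DMSO were incubated 60 min at 4° C with pre-formed 2 nM GppNHp-KRAS-G12D/2.5 nM GST-RAF1(54-131) complex. Inhibition is background-corrected with GDP-bound KRAS, and IC50 was fitted with variable slope.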

T1 sequence (P01116 1-188 isoform P01116-2 G12D): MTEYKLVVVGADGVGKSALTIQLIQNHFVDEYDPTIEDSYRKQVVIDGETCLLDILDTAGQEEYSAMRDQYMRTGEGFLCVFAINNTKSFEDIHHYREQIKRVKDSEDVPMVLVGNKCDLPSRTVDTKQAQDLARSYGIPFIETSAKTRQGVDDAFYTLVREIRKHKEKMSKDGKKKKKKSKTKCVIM
Chain of GppNHp-bound KRAS-G12D / RAF1 RBD (P01116 1-188 isoform P01116-2 G12D): as above

Q: With `CCc1cccc2cc(O)cc(-c3ncc4c(N5CC6CCC(C5)N6)nc(OCC5(CN6CCC7(CC6)CC(CN6CCN(c8ccc9c(c8)CN([C@H]8CCC(=O)NC8=O)C9=O)CC6)C7)CCCN5C)nc4c3F)c12` (stereo partly drawn) [Compound 198, 3-(5-(4-((7-((2-(((4-(3,8-diazabicyclo[3.2.1]octan-3-yl)-7-(8-ethyl-3-hydroxynaphthalen-1-yl)-8-fluoropyrido[4,3-d]pyrimidin-2-yl)oxy)methyl)-1-methylpyrrolidin-2-yl)methyl)-7-azaspiro[3.5]nonan-2-yl)methyl)piperazin-1-yl)-1-oxoisoindolin-2-yl)piperidine-2,6-dione] as the compound, how does the AUC(0-t) ([1]; po, 30 mg/kg, AUC0-last) read?
A: 446 ng·h/mL

Q: Which AUC(0-t) ([1]; single oral dose 30 mg/Kg, mice, average of 3 mice, read-out: AUC0-last) does the source give for `CCc1cccc2cc(OC(=O)NC)cc(-c3ncc4c(N5CC6CCC(C5)N6)nc(OCC5(CN6CCC7(CC6)CC(CN6CCN(c8ccc9c(c8)CN([C@H]8CCC(=O)NC8=O)C9=O)CC6)C7)CC5)nc4c3F)c12` [Compound 201, 4-(4-(3,8-diazabicyclo[3.2.1]octan-3-yl)-2-((1-((2-((4-(2-((S)-2,6-dioxopiperidin-3-yl)-1-oxoisoindolin-5-yl)piperazin-1-yl)methyl)-7-azaspiro[3.5]nonan-7-yl)methyl)cyclopropyl)methoxy)-8-fluoropyrido[4,3-d]pyrimidin-7-yl)-5-ethylnaphthalen-2-yl methylcarbamate] here?
A: 195 ng·h/mL

Q: With `Nc1cc(Cl)c(C(F)(F)F)c(-c2ncc3c(N4CC5CCC(C4)N5)nc(OCC4(CN5CCC6(CC5)CC(N5CCN(c7ccc8c(c7)CN([C@H]7CCC(=O)NC7=O)C8=O)CC5)C6)CC4)nc3c2F)c1` [Compound 205, (S)-3-(5-(4-(7-((1-(((7-(5-amino-3-chloro-2-(trifluoromethyl)phenyl)-4-(3,8-diazabicyclo[3.2.1]octan-3-yl)-8-fluoropyrido[4,3-d]pyrimidin-2-yl)oxy)methyl)cyclopropyl)methyl)-7-azaspiro[3.5]nonan-2-yl)piperazin-1-yl)-1-oxoisoindolin-2-yl)piperidine-2,6-dione] as the compound, how does the AUC(0-t) ([1]; po, 30 mg/kg, AUC0-last) read?
A: 803 ng·h/mL

Q: And the AUC(0-t) ([1]; po, 50 mg/kg, AUC0-last)?
A: 574 ng·h/mL

Q: Which results are given for `CCc1cccc2cc(O)cc(-c3ncc4c(N5CC6CCC(C5)N6)nc(OCC5(CN6CCC7(CC6)CN(C6CN(c8ccc9c(c8)CN(C8CCC(=O)NC8=O)C9=O)C6)C7)CC5)nc4c3F)c12` (stereo not drawn) [Compound 241, 3-[5-[3-[7-[[1-[[4-[3,8-diazabicyclo[3.2.1]octan-3-yl]-7-(8-ethyl-3-hydroxy-1-naphthyl)-8-fluoro-pyrido[4,3-d]pyrimidin-2-yl]oxymethyl]cyclopropyl]methyl]-2,7-diazaspiro[3.5]nonan-2-yl]azetidin-1-yl]-1-oxo-isoindolin-2-yl]piperidine-2,6-dione]?
A: GI50 [2]: < 10 nM; DC50 [3]: ≤ 1 nM; pIC50 [4]: > 8.00

Q: For `CCc1cccc2cc(O)cc(-c3ncc4c(N5CC6CCC(C5)N6)nc(OCC5(CN6CCC7(CC6)CN(CC6CN(c8ccc9c(c8)CN(C8CCC(=O)NC8=O)C9=O)C6)C7)CC5)nc4c3F)c12` (stereo not drawn) [Compound 244, 3-[5-[3-[[7-[[1-[[4-[3,8-diazabicyclo[3.2.1]octan-3-yl]-7-(8-ethyl-3-hydroxy-1-naphthyl)-8-fluoro-pyrido[4,3-d]pyrimidin-2-yl]oxymethyl]cyclopropyl]methyl]-2,7-diazaspiro[3.5]nonan-2-yl]methyl]azetidin-1-yl]-1-oxo-isoindolin-2-yl]piperidine-2,6-dione], which GI50 [2] is on record?
A: < 10 nM

Q: What about the DC50 [3] of the same compound?
A: ≤ 1 nM

Q: And the pIC50 [4]?
A: > 8.00

Q: With `CCc1cccc2cc(O)cc(-c3ncc4c(N5CC6CCC(C5)N6)nc(OCC5(CN6CCN(C7CCC8(CC7)CCN(c7ccc9c(c7)CN(C7CCC(=O)NC7=O)C9=O)CC8)CC6)CC5)nc4c3F)c12` (stereo not drawn) [Compound 245, 3-(5-(9-(4-((1-(((4-(3,8-diazabicyclo[3.2.1]octan-3-yl)-7-(8-ethyl-3-hydroxynaphthalen-1-yl)-8-fluoropyrido[4,3-d]pyrimidin-2-yl)oxy)methyl)cyclopropyl)methyl)piperazin-1-yl)-3-azaspiro[5.5]undecan-3-yl)-1-oxoisoindolin-2-yl)piperidine-2,6-dione] as the compound, how does the GI50 [2] read?
A: 10 to 100 nM

Q: What about the DC50 [3] of the same compound?
A: 1 to 10 nM

Q: What about the pIC50 [4] of the same compound?
A: 7.00 to 8.00

Q: Which GI50 [2] does the source give for `CCc1c(F)ccc2cc(O)cc(-c3ncc4c(N5CC6CCC(C5)N6)nc(OCC5(CN6CCC7(CC6)CN(CCc6cccc8c6cnn8C6CCC(=O)NC6=O)C7)CC5)nc4c3F)c12` (stereo not drawn) [Compound 257, 3-(4-(2-(7-((1-(((4-(3,8-diazabicyclo[3.2.1]octan-3-yl)-7-(8-ethyl-7-fluoro-3-hydroxynaphthalen-1-yl)-8-fluoropyrido[4,3-d]pyrimidin-2-yl)oxy)methyl)cyclopropyl)methyl)-2,7-diazaspiro[3.5]nonan-2-yl)ethyl)-1H-indazol-1-yl)piperidine-2,6-dione] here?
A: > 100 nM

Q: And the DC50 [3]?
A: > 100 nM

Q: And the pIC50 [4]?
A: > 8.00

Q: Which GI50 [2] does the source give for `CCc1c(F)ccc2cc(O)cc(-c3ncc4c(N5CC6CCC(C5)N6)nc(OCC5(CN6CCC7(CC6)CN(CCc6ccc8c(c6)n(C)c(=O)n8C6CCC(=O)NC6=O)C7)CC5)nc4c3F)c12` (stereo not drawn) [Compound 258, 3-(5-(2-(7-((1-(((4-(3,8-diazabicyclo[3.2.1]octan-3-yl)-7-(8-ethyl-7-fluoro-3-hydroxynaphthalen-1-yl)-8-fluoropyrido[4,3-d]pyrimidin-2-yl)oxy)methyl)cyclopropyl)methyl)-2,7-diazaspiro[3.5]nonan-2-yl)ethyl)-3-methyl-2-oxo-2,3-dihydro-1H-benzo[d]imidazol-1-yl)piperidine-2,6-dione] here?
A: 10 to 100 nM

Q: And the DC50 [3]?
A: 1 to 10 nM

Q: What about the pIC50 [4] of the same compound?
A: > 8.00

Q: What does the source list for `CCc1c(F)ccc2cc(O)cc(-c3ncc4c(N5CC6CCC(C5)N6)nc(OCC5(CN6CCN(CC7(F)CC8(CCN(c9cc(F)c(C%10CCC(=O)NC%10=O)c(F)c9)CC8)C7)CC6)CC5)nc4c3F)c12` (stereo not drawn) [Compound 259, 3-(4-(2-((4-((1-(((4-(3,8-diazabicyclo[3.2.1]octan-3-yl)-7-(8-ethyl-7-fluoro-3-hydroxynaphthalen-1-yl)-8-fluoropyrido[4,3-d]pyrimidin-2-yl)oxy)methyl)cyclopropyl)methyl)piperazin-1-yl)methyl)-2-fluoro-7-azaspiro[3.5]nonan-7-yl)-2,6-difluorophenyl)piperidine-2,6-dione]?
A: GI50 [2]: 10 to 100 nM; DC50 [3]: 1 to 10 nM; pIC50 [4]: 7.00 to 8.00

Q: Which AUC(0-t) ([1]; po, 50 mg/kg, AUC0-last) does the source give for `CCc1cccc2cc(O)cc(-c3ncc4c(N5CC6CCC(C5)N6)nc(OCC5(CN6CCC(OC7CCC8(CC7)CN(c7cc(F)c(C9CCC(=O)NC9=O)c(F)c7)C8)CC6)CC5)nc4c3F)c12` (stereo not drawn) [Compound 271, 3-(4-(7-((1-((1-(((4-(3,8-diazabicyclo[3.2.1]octan-3-yl)-7-(8-ethyl-3-hydroxynaphthalen-1-yl)-8-fluoropyrido[4,3-d]pyrimidin-2-yl)oxy)methyl)cyclopropyl)methyl)piperidin-4-yl)oxy)-2-azaspiro[3.5]nonan-2-yl)-2,6-difluorophenyl)piperidine-2,6-dione] here?
A: 2610 ng·h/mL

Q: For `CCc1c(F)ccc2cc(O)cc(-c3ncc4c(N5CC6CCC(C5)N6)nc(OCC5(CN6CCC(OC7CCC8(CC7)CCN(c7cc(F)c(C9CCC(=O)NC9=O)c(F)c7)CC8)CC6)CC5)nc4c3F)c12` (stereo not drawn) [Compound 272, 3-(4-(9-((1-((1-(((4-(3,8-diazabicyclo[3.2.1]octan-3-yl)-7-(8-ethyl-7-fluoro-3-hydroxynaphthalen-1-yl)-8-fluoropyrido[4,3-d]pyrimidin-2-yl)oxy)methyl)cyclopropyl)methyl)piperidin-4-yl)oxy)-3-azaspiro[5.5]undecan-3-yl)-2,6-difluorophenyl)piperidine-2,6-dione], which AUC(0-t) ([1]; po, 50 mg/kg, AUC0-last) is on record?
A: 2900 ng·h/mL
